From patent US12403137B2, “Compounds and methods of use” (Tango Therapeutics, Inc., priority 2019, dated 2025)

Columns and labels:
[1] = test system: HAP1 MTAP-intact cell line; assay: SDMA in-cell western assay, HAP1 MTAP-intact; type: cell-based; conditions: for IC50: Homo sapiens
Method: (§1) Table 1 also indicates IC50 values in an MTAP-isogenic cell line pair for exemplary compounds in an SDMA in-cell western assay (columns 7-8). HAP1 MTAP-intact is a cell line in which endogenous levels of MTAP are expressed, and HAP1 MTAP-deleted is an MTAP-null cell line. For Table 1, “a*” and “aa*” indicates an IC50 of <1 μM, “b*” and “bb*” indicates an IC50 equal to or greater than 1 μM but less than 10 μM, and “c*” and “cc*” indicates an IC50 of greater than or equal to 10 μM in the HAP1 MTAP-intact and the HAP1 MTAP-deleted assays, respectively. In column 9, “A*” indicates an IC50 ratio greater than or equal to 10 fold between the IC50 in the HAP1 MTAP-intact cell line and the HAP1 MTAP-deleted cell line; “B*” indicates an IC50 ratio greater than or equal to 3 fold but lower than 10 fold between the IC50 in the HAP1 MTAP-intact cell line and the HAP1 MTAP-deleted cell line; “C*” indicates an IC50 ratio of less than 3 fold between the IC50 in the HAP1 MTAP-intact cell line and the HAP1 MTAP-deleted cell line. Compounds with a ratio in the SDMA in-cell western assay of equal to or greater than 3 fold are considered MTAP-selective.

PRMT5 [2] = target: T1, PRMT5 (Homo sapiens, UniProt O14744); assay: PRMT5 inhibition assay with no cofactor; type: biochemical; conditions: against PRMT5 with no cofactor; read-out: No Co-factor IC50
T1 construct: purchased Viva (custom protein)

PRMT5 [3] = target: T1, PRMT5; assay: PRMT5 inhibition assay with MTA as cofactor; type: biochemical; conditions: for IC50: against PRMT5 with MTA as cofactor; for SAM/MTA Ratio: ratio of Ki in the presence of SAM to Ki in the presence of MTA, Ki=IC50/1.5 (SAM), Ki=IC50/13.5 (MTA)
Source text: (§2) The Ki values can be calculated from the IC50 values as described in the Examples section. As detailed in the Examples section, for the assay performed in the presence of SAM, IC50=Ki×1.5 (Ki=IC50/1.5). For the assay performed in the presence of MTA, IC50=Ki×13.5 (Ki=IC50/13.5). Column 6 indicates the ratio between the Ki of compounds in the presence of SAM and the Ki of compounds in the presence of MTA

PRMT5 [4] = target: T1, PRMT5; assay: PRMT5 inhibition assay with SAM as cofactor; type: biochemical; conditions: against PRMT5 in the presence of SAM as cofactor
Source text: as §2

[5] = test system: HAP1 MTAP-deleted cell line; assay: SDMA in-cell western assay, HAP1 MTAP-deleted; type: cell-based; conditions: for IC50: Homo sapiens, HAP1 MTAP-deleted (MTAP-null) cell line; for MTAP Intact/Deleted Ratio: IC50 ratio HAP1 MTAP-intact / HAP1 MTAP-deleted, >=3 fold considered MTAP-selective
Method: as §1

T1 sequence (O14744 whole entry): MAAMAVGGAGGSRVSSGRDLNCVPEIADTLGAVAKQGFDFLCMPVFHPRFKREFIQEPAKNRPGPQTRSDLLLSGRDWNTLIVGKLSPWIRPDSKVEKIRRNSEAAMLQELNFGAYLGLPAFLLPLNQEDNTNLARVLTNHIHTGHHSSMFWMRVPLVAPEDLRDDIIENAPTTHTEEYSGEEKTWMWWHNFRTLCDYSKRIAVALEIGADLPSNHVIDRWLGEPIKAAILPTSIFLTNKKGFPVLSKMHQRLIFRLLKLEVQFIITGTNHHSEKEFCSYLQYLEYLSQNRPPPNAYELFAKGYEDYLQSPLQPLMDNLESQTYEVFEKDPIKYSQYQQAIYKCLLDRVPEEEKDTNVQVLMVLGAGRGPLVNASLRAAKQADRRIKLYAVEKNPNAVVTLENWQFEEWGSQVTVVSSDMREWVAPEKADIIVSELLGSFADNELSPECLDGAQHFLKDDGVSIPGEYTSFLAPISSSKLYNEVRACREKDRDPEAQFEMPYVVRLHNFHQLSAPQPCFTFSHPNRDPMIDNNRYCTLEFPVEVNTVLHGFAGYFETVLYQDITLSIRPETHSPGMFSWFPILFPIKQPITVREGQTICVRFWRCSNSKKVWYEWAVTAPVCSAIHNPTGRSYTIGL
T1 sequence (Q9BQA1 whole entry partner): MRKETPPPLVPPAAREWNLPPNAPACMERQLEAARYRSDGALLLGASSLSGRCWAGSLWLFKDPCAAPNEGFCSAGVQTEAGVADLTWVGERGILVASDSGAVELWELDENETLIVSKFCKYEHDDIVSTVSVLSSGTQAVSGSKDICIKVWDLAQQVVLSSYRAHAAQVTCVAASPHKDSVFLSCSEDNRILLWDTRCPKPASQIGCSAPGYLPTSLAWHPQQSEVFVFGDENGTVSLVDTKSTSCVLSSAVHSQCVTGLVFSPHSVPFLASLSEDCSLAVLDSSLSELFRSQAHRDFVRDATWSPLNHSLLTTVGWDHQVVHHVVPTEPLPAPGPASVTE

With `CC(=O)N1CCC(Nc2cc(C(=O)NC[C@@H](O)[C@@H]3Cc4ccc(OCc5ocnc5C)cc4CN3)cc(N3CCCCC3)c2)CC1` [Compound 60, 3-[(1-acetyl-4-piperidyl)amino]-N-[(2R)-2-hydroxy-2-[(3S)-7-[(4-methyloxazol-5-yl)methoxy]-1,2,3,4-tetrahydroisoquinolin-3-yl]ethyl]-5-(1-piperidyl)benzamide] the IC50 [1] was no less than 10000 nM, the IC50 (PRMT5 [2]) was 50 to 500 nM and the IC50 (PRMT5 [3]) was less than 50 nM. The “SAM/MTA Ratio” value (PRMT5 [3]) was “A (a Ki ratio greater than or equal to 10 fold between the Ki in the presence of SAM and the Ki in the presence of MTA)”, the IC50 (PRMT5 [4]) was 50 to 500 nM and the IC50 [5] was 1000 to 10000 nM. The “MTAP Intact/Deleted Ratio” value [5] was “C* (an IC50 ratio of less than 3 fold between the IC50 in the HAP1 MTAP-intact cell line and the HAP1 MTAP-deleted cell line)”.
With `O=C(NC[C@@H](O)[C@@H]1Cc2ccc(OCc3cnco3)cc2CN1)c1ccc(C(=O)N2[C@@H]3CCC[C@H]2COC3)cc1` [Compound 7, 4-((1R,5S)-3-oxa-9-azabicyclo[3.3.1]nonane-9-carbonyl)-N—((R)-2-hydroxy-2-((S)-7-(oxazol-5-ylmethoxy)-1,2,3,4-tetrahydroisoquinolin-3-yl)ethyl)benzamide] the IC50 [1] was no less than 10000 nM, the IC50 (PRMT5 [2]) was 500 to 5000 nM and the IC50 (PRMT5 [3]) was 50 to 500 nM. The “SAM/MTA Ratio” value (PRMT5 [3]) was “A (a Ki ratio greater than or equal to 10 fold between the Ki in the presence of SAM and the Ki in the presence of MTA)”, the IC50 (PRMT5 [4]) was 50 to 500 nM and the IC50 [5] was 1000 to 10000 nM. The “MTAP Intact/Deleted Ratio” value [5] was “B* (an IC50 ratio greater than or equal to 3 fold but lower than 10 fold between the IC50 in the HAP1 MTAP-intact cell line and the HAP1 MTAP-deleted cell line)”.
Compound `Cc1ncoc1COc1ccc2c(c1)CN[C@H]([C@H](O)CNC(=O)c1ccnc(Nc3cccnc3)c1)C2` [Compound 34, N—((R)-2-hydroxy-2-((S)-7-((4-methyloxazol-5-yl)methoxy)-1,2,3,4-tetrahydroisoquinolin-3-yl)ethyl)-2-(pyridin-3-ylamino)isonicotinamide] has an IC50 [1] of no less than 10000 nM, an IC50 (PRMT5 [2]) of 50 to 500 nM and an IC50 (PRMT5 [3]) of less than 50 nM. For the same compound, the “SAM/MTA Ratio” value (PRMT5 [3]) was “A (a Ki ratio greater than or equal to 10 fold between the Ki in the presence of SAM and the Ki in the presence of MTA)”, the IC50 (PRMT5 [4]) was 50 to 500 nM and the IC50 [5] was 1000 to 10000 nM. The “MTAP Intact/Deleted Ratio” value [5] was “B* (an IC50 ratio greater than or equal to 3 fold but lower than 10 fold between the IC50 in the HAP1 MTAP-intact cell line and the HAP1 MTAP-deleted cell line)”.
In the case of `Cc1ncoc1COc1ccc2c(c1)CN[C@H]([C@H](O)CNC(=O)c1cc(NC3CC4(CCC4)C3)ncn1)C2` [Compound 43, N-[(2R)-2-hydroxy-2-[(3S)-7-[(4-methyloxazol-5-yl)methoxy]-1,2,3,4-tetrahydroisoquinolin-3-yl]ethyl]-6-(spiro[3.3]heptan-2-ylamino)pyrimidine-4-carboxamide], the IC50 [1] is reported as 1000 to 10000 nM, the IC50 (PRMT5 [2]) is reported as 50 to 500 nM and the IC50 (PRMT5 [3]) is reported as less than 50 nM. The “SAM/MTA Ratio” value (PRMT5 [3]) was “A (a Ki ratio greater than or equal to 10 fold between the Ki in the presence of SAM and the Ki in the presence of MTA)”, the IC50 (PRMT5 [4]) was 50 to 500 nM and the IC50 [5] was less than 1000 nM. For the same compound, the “MTAP Intact/Deleted Ratio” value [5] was “A* (an IC50 ratio greater than or equal to 10 fold between the IC50 in the HAP1 MTAP-intact cell line and the HAP1 MTAP-deleted cell line)”.
With `COCCN(C)c1nc(NC2COC2)cc(C(=O)NC[C@@H](O)[C@@H]2Cc3ccc(OCc4ocnc4C)cc3CN2)n1` [Compound 37, N—((R)-2-hydroxy-2-((S)-7-((4-methyloxazol-5-yl)methoxy)-1,2,3,4-tetrahydroisoquinolin-3-yl)ethyl)-2-((2-methoxyethyl)(methyl)amino)-6-(oxetan-3-ylamino)pyrimidine-4-carboxamide] the IC50 (PRMT5 [2]) was no less than 5000 nM, the IC50 (PRMT5 [3]) was 500 to 5000 nM and the “SAM/MTA Ratio” value (PRMT5 [3]) was “A (a Ki ratio greater than or equal to 10 fold between the Ki in the presence of SAM and the Ki in the presence of MTA)”. For the same compound, the IC50 (PRMT5 [4]) was 500 to 5000 nM.
In the case of `CC(=O)N1CCC(Nc2cc(C(=O)NC[C@@H](O)[C@@H]3Cc4ccc(OCc5ocnc5C)cc4CN3)nc(N3CCN(C(C)C)CC3)n2)CC1` [Compound 72], the “HAP1 MTAP Intact IC50” value [1] is reported as “B*”, the IC50 (PRMT5 [2]) is reported as 50 to 500 nM and the IC50 (PRMT5 [3]) is reported as less than 50 nM. The IC50 [5] was less than 1000 nM and the “MTAP Intact/Deleted Ratio” value [5] was “A* (an IC50 ratio greater than or equal to 10 fold between the IC50 in the HAP1 MTAP-intact cell line and the HAP1 MTAP-deleted cell line)”.
`COCCN(C)c1nc(NC2CN(C(C)=O)C2)cc(C(=O)NC[C@@H](O)[C@@H]2Cc3ccc(OCc4ocnc4C)cc3CN2)n1` [Compound 82] was tested, and the IC50 [1] was no less than 10000 nM, the IC50 (PRMT5 [2]) was 50 to 500 nM and the IC50 (PRMT5 [3]) was less than 50 nM. For the same compound, the IC50 [5] was less than 1000 nM and the “MTAP Intact/Deleted Ratio” value [5] was “A* (an IC50 ratio greater than or equal to 10 fold between the IC50 in the HAP1 MTAP-intact cell line and the HAP1 MTAP-deleted cell line)”.
For `COCCN(C)c1cc(C(=O)NC[C@@H](O)[C@@H]2Cc3ccc(OCc4ocnc4C)cc3CN2)cc(NC2CCN(C(C)=O)CC2)n1` [Compound 66], the IC50 [1] was no less than 10000 nM, the IC50 (PRMT5 [2]) was 50 to 500 nM and the IC50 (PRMT5 [3]) was less than 50 nM. The IC50 [5] was less than 1000 nM and the “MTAP Intact/Deleted Ratio” value [5] was “A* (an IC50 ratio greater than or equal to 10 fold between the IC50 in the HAP1 MTAP-intact cell line and the HAP1 MTAP-deleted cell line)”.
`COCCN(C)c1cc(C(=O)NC[C@@H](O)[C@@H]2Cc3ccc(OCc4ocnc4C)cc3CN2)cc(NC2CC3(CCC3)C2)n1` [Compound 68] was tested, and the IC50 [1] was 1000 to 10000 nM, the IC50 (PRMT5 [2]) was 50 to 500 nM and the IC50 (PRMT5 [3]) was less than 50 nM. The IC50 [5] was less than 1000 nM and the “MTAP Intact/Deleted Ratio” value [5] was “A* (an IC50 ratio greater than or equal to 10 fold between the IC50 in the HAP1 MTAP-intact cell line and the HAP1 MTAP-deleted cell line)”.
Work on `CC(=O)N1CC(Nc2cc(C(=O)NC[C@@H](O)[C@@H]3Cc4ccc(OCc5ocnc5C)cc4CN3)cc(N3CCN(C(C)C)CC3)n2)C1` [Compound 67] yielded an IC50 [1] of no less than 10000 nM, an IC50 (PRMT5 [2]) of 50 to 500 nM and an IC50 (PRMT5 [3]) of less than 50 nM. For the same compound, the IC50 [5] was 1000 to 10000 nM and the “MTAP Intact/Deleted Ratio” value [5] was “C* (an IC50 ratio of less than 3 fold between the IC50 in the HAP1 MTAP-intact cell line and the HAP1 MTAP-deleted cell line)”.
With `COCCN(C)c1cc(C(=O)NC[C@@H](O)[C@@H]2Cc3ccc(OCc4ocnc4C)cc3CN2)cc(NC2CN(C(C)=O)C2)n1` [Compound 69] the IC50 [1] was no less than 10000 nM, the IC50 (PRMT5 [2]) was 50 to 500 nM and the IC50 (PRMT5 [3]) was less than 50 nM. The IC50 [5] was 1000 to 10000 nM and the “MTAP Intact/Deleted Ratio” value [5] was “C* (an IC50 ratio of less than 3 fold between the IC50 in the HAP1 MTAP-intact cell line and the HAP1 MTAP-deleted cell line)”.
In the case of `Cc1ncoc1COc1ccc2c(c1)CN[C@H]([C@H](O)CNC(=O)c1cc(NC3CCC3)nc(C3CCN(C(C)C)CC3)c1)C2` [Compound 78], the IC50 [1] is reported as 1000 to 10000 nM, the IC50 (PRMT5 [2]) is reported as 50 to 500 nM and the IC50 (PRMT5 [3]) is reported as less than 50 nM. For the same compound, the IC50 [5] was less than 1000 nM and the “MTAP Intact/Deleted Ratio” value [5] was “A* (an IC50 ratio greater than or equal to 10 fold between the IC50 in the HAP1 MTAP-intact cell line and the HAP1 MTAP-deleted cell line)”.
With `CC(=O)N1CCC(Nc2cc(C(=O)NC[C@@H](O)[C@@H]3Cc4ccc(OCc5ocnc5C)cc4CN3)cc(N3CCN(C(C)C)CC3)n2)CC1` [Compound 71] the IC50 [1] was no less than 10000 nM, the IC50 (PRMT5 [2]) was less than 50 nM and the IC50 (PRMT5 [3]) was less than 50 nM. The IC50 [5] was 1000 to 10000 nM and the “MTAP Intact/Deleted Ratio” value [5] was “B* (an IC50 ratio greater than or equal to 3 fold but lower than 10 fold between the IC50 in the HAP1 MTAP-intact cell line and the HAP1 MTAP-deleted cell line)”.
For `CCCN(C)c1nc(NC2COC2)cc(C(=O)NC[C@@H](O)[C@@H]2Cc3ccc(OCc4ocnc4C)cc3CN2)n1` [Compound 38, N—((R)-2-hydroxy-2-((S)-7-((4-methyloxazol-5-yl)methoxy)-1,2,3,4-tetrahydroisoquinolin-3-yl)ethyl)-2-(methyl(propyl)amino)-6-(oxetan-3-ylamino)pyrimidine-4-carboxamide], the IC50 (PRMT5 [2]) was no less than 5000 nM, the IC50 (PRMT5 [3]) was 500 to 5000 nM and the “SAM/MTA Ratio” value (PRMT5 [3]) was “A (a Ki ratio greater than or equal to 10 fold between the Ki in the presence of SAM and the Ki in the presence of MTA)”. It also gave an IC50 (PRMT5 [4]) of 500 to 5000 nM.
